“Also recorded” adds a separate entry of the source. Values belong to the compound of their own block, whether it stands above or below them.
Legend:
PEPCK = assay: Diabetic zebrafish Western blot, PEPCK expression; assay type: in vivo; conditions: 10 μM, FIG. 8
Experimental: (§1) Alloxan-induced diabetic zebrafish were treated with compounds for immunoblot to validate the newly developed animal model, determine the antidiabetic potential of natural product leads, evaluate glucose metabolism, and discover possible mechanisms of action.
(§2) At 72 hpf, naturally dechorionated zebrafish were sorted into a 24-well microplate with 10 fish per well. Type 2 diabetes was induced with the diabetogenic agent alloxan at a dose of 0.5 mg/mL in system water for 3 hours. The incubation solution was changed to 0.01% DMSO in system water with compounds at concentrations of 20 μg/mL or 10 PM, respectively. After 3 hours of treatment with natural product samples, 10 mg/mL D-glucose was administered in system water for 30 minutes, followed by 1 hour in fresh system water to metabolize the glucose and natural product leads. Upon completion of the 4-phase treatment cycle, zebrafish treatment groups were snap frozen into individual microcentrifuge tubes on dry ice, stored overnight at −80° C., thawed, homogenized with 2 μL PBS per animal, and centrifuged at 4° C. for 1 hour at 17,000 rpm. Protein content of homogenate supernatant was determined using the Pierce BCA Protein Assay kit (Pierce Biotechnology) and bovine serum albumin (BSA) standard curve. Absorbance of protein solutions from zebrafish homogenates and serial dilutions of the BSA standard were measured at 544 nm, using a FLUOstar Optima plate reader (BMG Labtechnologies GmbH, Inc.). Homogenates were analyzed by Western blot. Equal amounts of protein (20 μg) were combined with 4× lithium dodecyl sulphate (LDS) loading buffer (NuPAGE, Life Technologies, Carlsbad, CA, USA), brought to volume (15 μL) with PBS, and heated to 95° C. for 5 minutes. Proteins were resolved using NuPAGE Bis-Tris 4-12% gradient sodium dodecyl sulfate polyacrylamide gel electrophoresis (SDS-PAGE) gels together with SeeBlue Plus2 Pre-Stained Standard Ladder (Life Technologies).
(§3) Electrophoresis was performed using NuPAGE MES SDS Running Buffer and XCell SureLock Mini-Cell Electrophoresis System (Life Technologies). Separated proteins were transferred from the gel to a polyvinylidene fluoride (PVDF) membrane using tris buffered saline with Tween-20 (TBST) buffer. The blots were blocked in 3% BSA in TBST and subsequently probed using primary antibodies (1:1000 in 1% BSA in TBST) against each target overnight (Table 1). The secondary, horseradish peroxidase (HRP) conjugated antibodies (1:2000) were obtained from Santa Cruz Biotechnology Inc., (Santa Cruz, CA, USA). Conjugated antibodies were detected using SuperSignal West Femto chemiluminescent substrate from Pierce Biotechnology. […] Band density was quantified for proteins of interest using ImageJ Gel Analysis. […]

NFκB p65 = assay: Diabetic zebrafish Western blot, NFκB expression; assay type: in vivo; conditions: for NFκB p65 expression (Western blot band density): diabetic zebrafish, 10, 5, and 1 μM (rosiglitazone 10 μM), FIG. 10
Experimental: as §1
as §2, with “The incubation solution was changed to 0.01% DMSO in system water with compounds at concentrations of 20 μg/mL or 10 PM, respectively.” left out
Electrophoresis was performed using NuPAGE MES SDS Running Buffer and XCell SureLock Mini-Cell Electrophoresis System (Life Technologies). Separated proteins were transferred from the gel to a polyvinylidene fluoride (PVDF) membrane using tris buffered saline with Tween-20 (TBST) buffer. The blots were blocked in 3% BSA in TBST and subsequently probed using primary antibodies (1:1000 in 1% BSA in TBST) against each target overnight (Table 1). The secondary, horseradish peroxidase (HRP) conjugated antibodies (1:2000) were obtained from Santa Cruz Biotechnology Inc., (Santa Cruz, CA, USA). Conjugated antibodies were detected using SuperSignal West Femto chemiluminescent substrate from Pierce Biotechnology. Western blots were visualized, and images captured using a luminometer and LumiAnalyst 3.0 software (Boehringer-Mannheim, Mannheim, Germany). Band density was quantified for proteins of interest using ImageJ Gel Analysis.
In the case of duplicate blots, the band density results were expressed in bar graphs as the mean±standard error of the mean (SEM) of two independent experiments. Due to the labor- and time-intensive aspect of Western blot analysis with multiple target proteins, a maximum of two independent immunoblot experiments were performed per compared sample set. […] Additionally, treatment groups were also evaluated versus the diabetic, untreated control group for significance by Student's f-test and indicated in the bar graphs with p values represented by *p<0.05, **p<0.01, and ***p<0.001. […]

PPAR-γ = assay: Diabetic zebrafish Western blot, PPAR-γ expression; assay type: in vivo; conditions: for PPAR-γ expression, dose dependence: diabetic zebrafish, 10, 5, and 1 μM
Experimental: as §1, §2, §3

NFκB = NFκB in vitro assay, NFκB translocation to the nucleus in HeLa cells; assay type: cell-based; conditions: for IC50: inhibiting NFκB translocation to the nucleus, tested at 50, 5, 0.5, and 0.05 μM
Experimental: Following derivatization and purification, compound 40 was tested in the NFκB and PPAR-Y in vitro assays, as well as the diabetic zebrafish Western blot. The three 4-phenylcoumarin glycoside natural products from the diverse library (22, 23, and 24) and the isopropyl ether derivative (40), were evaluated for PPAR-γ activity at 50 μg/mL in HeLa cells according to a PPAR-γ ELISA Assay (Table 4). […] NFκB Assay (Table 4).
As an excellent lead, 24 was derivatized to yield 40, and both compounds were evaluated in the NFκB and PPAR-γ in vitro assays (Table 4). […] To investigate 24 and 40 in a live, metabolizing system with appropriate hormone responses, the compounds were tested (at 10, 5, and 1 μM) in the larval diabetic zebrafish assay.

IC50 (NFκB): 10.2 µM
Compound: COc1cc(O[C@@H]2OCC(O)(CO[C@@H]3OC(CO)[C@@H](O)C(O)C3O)C2O)c2c(-c3ccc(OC(C)C)c(O)c3)cc(=O)oc2c1 (single isomer, unassigned) [Compound 40]
PEPCK expression versus rosiglitazone (PEPCK): approximately equal efficacy to rosiglitazone | NFκB p65 expression (Western blot band density) (NFκB p65): significantly inhibit NFκB expression versus the untreated, diabetic control | PPAR-γ expression, dose dependence (PPAR-γ; FIG. 9): dose-dependent activation of PPAR-γ; also recorded: not as effective as 24 | times less effective at inhibiting NFκB translocation than parent compound 24 (NFκB): 2.6 times

Compound: COc1cc(O[C@@H]2O[C@H](CO[C@@H]3OCC(O)(CO)[C@H]3O)[C@@H](O)[C@H](O)[C@H]2O)c2c(-c3ccc(O)c(O)c3)cc(=O)oc2c1 (stereo partly drawn) [Compound 24, 5-O-[β-D-apiofuranosyl-(1→6)-β-D-glucopyranosyl]-7-methoxy-3′,4′-dihydroxy-4-phenylcoumarin]
PEPCK expression versus rosiglitazone (PEPCK): greater gluconeogenic effect than rosiglitazone | NFκB expression (Western blot) (NFκB p65; diabetic zebrafish, 10 μM, FIG. 5): excellent inhibition of NFκB expression | NFκB p65 expression (Western blot band density) (NFκB p65): opposite dose-dependent effect | PPAR-γ expression (Western blot band density) (PPAR-γ; diabetic zebrafish, 10 μM, library screen, FIG. 3 / FIG. 11): greater PPAR-7 expression than the PPAR-γ positive control; also recorded: greatest PPAR-γ activation surpassing even the positive control thiazolidinedione | PPAR-γ expression, dose dependence (PPAR-γ; FIG. 9): dose-dependent activation of PPAR-γ | PPAR-γ expression versus rosiglitazone (PPAR-γ; diabetic zebrafish, same concentration (10 μM), FIG. 9): greater PPAR-γ expression than the FDA-approved PPAR-γ agonist | IC50 (NFκB): 3.95 µM

— patent US20240398844A1, “PHENYLCOUMARINS FOR TREATING INFLAMMATION” (Ohio State Innovation Foundation, priority 2021, published 2024)
